Reference: PMC3695357, “Identification of Novel IGF1R Kinase Inhibitors by Molecular Modeling and High-Throughput Screening” (Acta Naturae, 2013)

Legend:
Type in all cases: biochemical
IGF1R kinase [1] = molecular target: T1, IGF1R kinase (Homo sapiens, UniProt P08069); test: IGF1R ADP-Glo kinase assay, dose-response; details: for IC50: ADP-Glo, 8-point curves from 100 μM, 50 μM ATP; for selectivity for IGF1R versus InsR: from IC50 values of Table 1
T1 construct: This assay utilizes a recombinant intracellular kinase domain fragment of IGF1R; purchased Promega Corp
Description: (§1) Multi-well liquid dispensing for setting up assays was performed using either the robotic liquid handler PlateMate Plus or the manual electronic multichannel micropipettes Matrix Impact (Thermo Scientific, Hudson, NH, USA). High-throughput Screening (HTS), kinase selectivity, and dose-response (IC50) assays were read in the luminescence mode using the PolarStar Omega reader (BMG Labtech, Ortenberg, Germany) or M5 reader (Molecular Devices Corp., Sunnyvale, CA). IGF1R ADP-Glo data in relative luminescence units (RLU) were collected from the plate readers, and the percentage of activity (% Activity) was determined for each point as follows: % Activity = 100*(RLU sample – RLU no kinase control avg)/(RLU kinase control avg – RLU no kinase control avg). The screening data were processed and visualized using Microsoft Excel templates designed to calculate the inhibition values, the Z’-factor, and GraphPad Prism 5 (GraphPad Software, Inc., La Jolla, CA) for IC50 analysis. The doseresponse curves of Percent Activity were fit in Prism, using a sigmoidal variable slope fit with the maximum % activity and the minimum % activity fixed at 100% and 0%, respectively. The Z′ factor, a statistical measure of variability and reproducibility for HTS assays, was determined using the following formula: Z′ = 1-[3 × (SDsample+SDcontol)/|Msample-Mcontrol|] [12], where SD denotes the standard deviation and M denotes the mean for the samples and controls, respectively. Prior to starting HTS, assay conditions were optimized and validated with regard to the maximum ATP turnover (never exceeding 20%), an acceptable signal-to-background ratio (“assay window”) of at least 6, an acceptable Z’-factor of at least 0.6, as well as day-to-day and plate-to-plate reproducibility of the screening data. All primary screening was performed at 20 μM compound concentrations, and some of the weak hits were subsequently re-tested at higher concentrations (40 or 80 μM) for confirmation. Statistically significant HTS hits in the primary screening were defined as those that produced a kinase activity signal at least three standard deviations lower than the mean of the assay plate run (not including the plate controls). Lineweaver- Burk plots were created in Excel or Prism using the standard algorithms. All assay development and validation and high-throughput screening procedures were carried out according to the general guidelines as published on the U.S. National Chemical Genomics Center web site (NC GC Assay Guidance Manual and High-throughput Assay Guidance Criteria, http://www.ncbi.nlm.nih.gov/books/NBK53196/).
IGF1R high throughput screening (HTS) assays using the IGF1R Kinase System and ADP-Glo readout system (Promega Corp.) were performed in a final volume of 7 μL per test compound using a 384-well small volume microplate format. All liquid dispensing was done using the PlateMate Plus robotic liquid handler. 3 μL aliquots of the enzyme/substrate mixture containing 1 μg of the IGF1Rtide peptide substrate and 4 ng of recombinant IGF1R kinase in a 0.66× assay buffer were transferred to the plate wells. The assay buffer (1×) consisted of 40 mM Tris chloride, 20 mM magnesium chloride, 0,1 mg/ml bovine serum albumin, 2 mM manganese chloride, and 250 μM dithiothreitol (DTT ). To add the tested compounds to the reaction, starting stocks of 10 mM compounds in dimethyl sulfoxide (DMSO) were diluted with DMSO to 2 mM. Next, 3 μL aliquots of 2 mM compound stock solutions in DMSO were transferred to 83 μL volumes of a 1× reaction buffer and thoroughly mixed. Aqueous compound solution aliquots of 2 μL were then transferred into the assay plate to get a final concentration of each compound of 20 μM in 1% DMSO. The plates were pre-incubated at 27°C for 10 min with gentle shaking (300 rpm). The assay was started by adding 2 μL of the ATP stock solution to the reaction mixture to achieve a final ATP concentration of 50 μM. […]

InsR kinase = molecular target: T2, InsR kinase (Homo sapiens, UniProt P06213); test: InsR ADP-Glo kinase assay, dose-response; details: for IC50: ADP-Glo, 8-point curves from 100 μM; for stronger inhibition of InsR versus IGF1R: from IC50 values of Table 1
T2 construct: the amount of recombinant insulin receptor kinase was 2 ng per well
Description: (§2) Kinase selectivity assays with InsR (dose-response measurements) and Met, Syk and BTK kinases (single point compound concentrations) using the ADP-Glo readout system were run under optimized experimental conditions similar to the IGF1R assay with regard to the kinetic parameters of kinase reactions.
Dose-response and IC50 measurements for the confirmed screening hits were conducted for IGF1R and InsR kinases. The conditions were similar to the HTS conditions described above, except that the compounds were plated in 8-point curves serially diluted 1:2 from 100 μM top concentrations and with a 1% final DMSO throughout, in quadruplicates for each compound dilution point. The time of incubation of kinase reaction mixtures was 2.5 or 4.5 hours at 27°C in different experiments both for the insulin kinase receptor and IGF1R, the dithiotreitol (DTT ) concentration was 500 μM, and the amount of recombinant insulin receptor kinase was 2 ng per well. DTT concentration was elevated to enhance the stability of the enzymes during 4.5 h incubation experiments. Compounds were typically serially 2-fold diluted in pure DMSO starting from 10 mM down to 19.5 μM to produce the final concentrations ranging from […] in a 1% DMSO-aqueous reaction buffer.

Met kinase = Met kinase (Homo sapiens, UniProt P08581); test: Met ADP-Glo kinase selectivity assay, single concentration; details: remaining kinase activity at 40 μM compound, 50 μM ATP
Description: as §2
(§3) The amounts of the Met, Syk, and BTK enzymes and the incubation time were optimized to ensure an ATP conversion not higher than 20% in all cases. The typical assay window (signal/background) was 3–5 for all kinases. The final volumes of the Met, Syk, and BTK kinase assay reaction mixtures were 5 μL. Two μL of the enzyme solution in a 1× reaction buffer (6 ng Met, 8 ng BTK, 4 ng Syk), 1 μL of the compound solution in a 2× reaction buffer, the ATP and substrate mixture in a 0.5× reaction mixture were added sequentially. The composition of the 1× reaction buffer was 40 mM Tris, 20 mM magnesium chloride, 0.1 mg/ml bovine serum albumin, 500 μM DTT at pH 7.5 with 1% final concentration of the DMSO, 50 μM ATP, and 0.2 mg/ml Poly(Glu4, Tyr1) substrates. The buffer was supplemented with 2 mM manganese (II) chloride in the case of BTK kinase. Compounds were tested at 40 μM concentrations. In each experiment, 6 wells with the enzyme, but no added compounds, were used as negative inhibition controls; 6 wells without tested compounds and the enzyme and 6 wells with the enzyme and 0.5–1 μM staurosporine were used as positive inhibition controls. Pre-incubation of the reaction mixture with compounds prior to ATP addition was performed for 20 min at 25°C in all experiments. The incubation of the reaction mixture lasted for 25 min at 37°C. All compounds were tested in 4 to 6 repeats. Conditions of ADP detection were as follows: 40 min incubation with an ADP-Glo reagent, followed by 30 min with a detection reagent at 25°C. Luminescence was read using a BMG Polarstar Omega reader at a gain setting of 4095 and measurement time of 0.5 s.

Syk kinase = Syk kinase (Homo sapiens, UniProt P43405); test: Syk ADP-Glo kinase selectivity assay, single concentration; details: remaining kinase activity at 40 μM compound, 50 μM ATP
Description: as §2, §3

BTK kinase = BTK kinase (Homo sapiens, UniProt Q06187); test: BTK ADP-Glo kinase selectivity assay, single concentration; details: remaining kinase activity at 40 μM compound, 50 μM ATP
Description: as §2, §3

IGF1R kinase [2] = molecular target: T1, IGF1R kinase; test: Michaelis-Menten kinetics / Lineweaver-Burk competition analysis; details: Lineweaver-Burk plot; for inhibition mechanism with regard to ATP: IGF1Rtide 143 μg/ml, ATP titrated; for inhibition mechanism with regard to the substrate: poly(Glu4,Tyr1) titrated, ATP 250 μM
Description: as §1
Serial dilutions of ATP and substrate polypeptide poly(Glu4,Tyr1) were tested in IGF1R kinase assays with the inhibitors L1 and T4 to produce the kinetic data for Lineweaver-Burk plots. […]

T1 sequence (P08069 999-1274 limits assumed): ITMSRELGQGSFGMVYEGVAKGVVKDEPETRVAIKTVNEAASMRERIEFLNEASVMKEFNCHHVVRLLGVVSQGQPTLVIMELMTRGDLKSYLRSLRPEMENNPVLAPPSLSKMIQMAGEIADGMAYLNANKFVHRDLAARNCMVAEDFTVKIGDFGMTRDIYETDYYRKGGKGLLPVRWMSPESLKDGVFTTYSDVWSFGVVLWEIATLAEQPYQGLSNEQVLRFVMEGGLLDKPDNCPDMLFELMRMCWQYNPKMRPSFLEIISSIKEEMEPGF
Chain of BTK kinase (Q06187 whole entry): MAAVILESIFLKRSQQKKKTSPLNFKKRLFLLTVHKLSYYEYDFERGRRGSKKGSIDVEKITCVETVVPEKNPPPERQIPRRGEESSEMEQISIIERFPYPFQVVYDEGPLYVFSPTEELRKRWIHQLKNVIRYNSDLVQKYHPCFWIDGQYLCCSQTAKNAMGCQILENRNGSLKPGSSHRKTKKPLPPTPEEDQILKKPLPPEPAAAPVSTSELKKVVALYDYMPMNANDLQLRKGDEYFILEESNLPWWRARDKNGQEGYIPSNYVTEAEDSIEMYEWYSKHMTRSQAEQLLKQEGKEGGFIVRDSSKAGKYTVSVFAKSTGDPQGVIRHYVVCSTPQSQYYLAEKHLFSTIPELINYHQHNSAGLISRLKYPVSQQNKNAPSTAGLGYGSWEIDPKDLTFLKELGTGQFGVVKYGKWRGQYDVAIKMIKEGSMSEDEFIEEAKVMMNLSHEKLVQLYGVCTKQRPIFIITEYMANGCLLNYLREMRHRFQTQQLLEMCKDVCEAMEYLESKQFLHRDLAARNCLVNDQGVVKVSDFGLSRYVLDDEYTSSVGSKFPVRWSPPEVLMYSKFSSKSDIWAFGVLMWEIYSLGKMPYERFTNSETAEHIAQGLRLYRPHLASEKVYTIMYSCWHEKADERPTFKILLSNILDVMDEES
Chain of Met kinase (P08581 25-1390): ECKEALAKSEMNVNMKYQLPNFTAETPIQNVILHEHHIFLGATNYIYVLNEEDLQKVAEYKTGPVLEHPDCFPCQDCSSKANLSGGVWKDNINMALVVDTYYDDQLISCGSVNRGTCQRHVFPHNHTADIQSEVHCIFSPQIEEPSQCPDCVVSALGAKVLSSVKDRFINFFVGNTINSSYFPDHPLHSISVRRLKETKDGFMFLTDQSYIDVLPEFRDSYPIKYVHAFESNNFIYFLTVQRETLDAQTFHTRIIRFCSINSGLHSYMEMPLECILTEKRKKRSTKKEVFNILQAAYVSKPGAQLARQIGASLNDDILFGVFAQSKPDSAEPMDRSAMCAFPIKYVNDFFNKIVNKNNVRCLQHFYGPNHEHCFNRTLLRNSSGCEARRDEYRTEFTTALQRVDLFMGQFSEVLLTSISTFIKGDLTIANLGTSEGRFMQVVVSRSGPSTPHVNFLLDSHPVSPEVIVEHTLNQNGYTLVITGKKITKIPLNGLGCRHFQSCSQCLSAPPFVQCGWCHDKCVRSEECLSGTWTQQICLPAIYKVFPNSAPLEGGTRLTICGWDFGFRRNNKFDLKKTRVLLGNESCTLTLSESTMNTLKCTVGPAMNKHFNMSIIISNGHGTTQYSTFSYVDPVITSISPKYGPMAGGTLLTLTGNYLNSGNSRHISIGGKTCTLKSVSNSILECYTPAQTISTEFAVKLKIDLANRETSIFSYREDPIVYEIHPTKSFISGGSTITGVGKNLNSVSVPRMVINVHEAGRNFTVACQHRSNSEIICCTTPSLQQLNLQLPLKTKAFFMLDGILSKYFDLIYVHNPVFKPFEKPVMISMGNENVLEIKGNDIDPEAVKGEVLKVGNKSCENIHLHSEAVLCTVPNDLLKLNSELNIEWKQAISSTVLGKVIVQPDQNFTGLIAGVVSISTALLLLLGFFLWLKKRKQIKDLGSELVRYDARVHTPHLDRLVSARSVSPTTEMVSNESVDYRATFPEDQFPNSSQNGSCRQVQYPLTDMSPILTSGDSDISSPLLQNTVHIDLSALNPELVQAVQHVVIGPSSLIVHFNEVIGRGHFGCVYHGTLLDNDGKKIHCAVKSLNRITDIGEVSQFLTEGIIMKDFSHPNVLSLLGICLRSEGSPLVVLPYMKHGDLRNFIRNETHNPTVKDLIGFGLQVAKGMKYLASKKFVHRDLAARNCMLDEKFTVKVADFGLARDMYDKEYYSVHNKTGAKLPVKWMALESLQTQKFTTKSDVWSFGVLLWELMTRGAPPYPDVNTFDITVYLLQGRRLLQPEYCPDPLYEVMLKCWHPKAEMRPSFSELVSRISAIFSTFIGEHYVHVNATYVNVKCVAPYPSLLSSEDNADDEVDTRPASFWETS
T2 sequence (P06213 28-1382): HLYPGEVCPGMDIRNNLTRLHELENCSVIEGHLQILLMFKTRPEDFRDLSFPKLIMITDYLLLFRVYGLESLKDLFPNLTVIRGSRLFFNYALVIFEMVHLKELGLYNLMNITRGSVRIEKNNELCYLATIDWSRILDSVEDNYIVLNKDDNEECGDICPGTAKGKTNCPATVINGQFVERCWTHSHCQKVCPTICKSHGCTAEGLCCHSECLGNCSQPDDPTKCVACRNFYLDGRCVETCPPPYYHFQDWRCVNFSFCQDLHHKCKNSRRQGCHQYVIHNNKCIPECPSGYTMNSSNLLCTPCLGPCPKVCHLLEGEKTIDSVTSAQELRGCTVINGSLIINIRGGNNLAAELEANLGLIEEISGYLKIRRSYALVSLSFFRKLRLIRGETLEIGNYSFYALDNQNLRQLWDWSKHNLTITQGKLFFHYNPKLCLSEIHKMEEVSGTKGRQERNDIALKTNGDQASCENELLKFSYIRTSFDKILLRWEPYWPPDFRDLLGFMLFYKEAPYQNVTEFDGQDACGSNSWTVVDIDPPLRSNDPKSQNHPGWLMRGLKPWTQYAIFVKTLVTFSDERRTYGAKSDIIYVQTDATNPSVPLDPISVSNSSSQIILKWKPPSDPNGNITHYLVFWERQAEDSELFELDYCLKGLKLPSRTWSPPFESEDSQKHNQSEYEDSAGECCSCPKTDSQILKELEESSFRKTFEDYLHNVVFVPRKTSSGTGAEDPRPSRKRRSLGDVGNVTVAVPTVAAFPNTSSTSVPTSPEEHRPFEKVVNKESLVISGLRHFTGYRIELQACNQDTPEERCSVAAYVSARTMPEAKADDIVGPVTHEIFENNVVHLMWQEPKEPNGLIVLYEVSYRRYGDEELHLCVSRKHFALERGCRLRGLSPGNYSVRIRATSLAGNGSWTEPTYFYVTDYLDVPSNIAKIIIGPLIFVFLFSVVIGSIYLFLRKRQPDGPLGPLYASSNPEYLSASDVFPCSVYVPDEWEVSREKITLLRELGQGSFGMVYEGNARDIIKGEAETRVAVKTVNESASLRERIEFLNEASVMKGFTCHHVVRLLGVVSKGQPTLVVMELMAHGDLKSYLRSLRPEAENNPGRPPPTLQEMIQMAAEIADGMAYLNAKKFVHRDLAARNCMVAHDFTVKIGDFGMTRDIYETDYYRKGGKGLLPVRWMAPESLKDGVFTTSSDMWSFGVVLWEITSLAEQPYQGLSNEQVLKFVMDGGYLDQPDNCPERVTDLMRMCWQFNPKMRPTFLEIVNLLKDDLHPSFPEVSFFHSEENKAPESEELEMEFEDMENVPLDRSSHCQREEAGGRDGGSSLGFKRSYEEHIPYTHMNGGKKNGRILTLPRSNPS

IC50 (IGF1R kinase [1]) | selectivity for IGF1R versus InsR (IGF1R kinase [1]) | IC50 (InsR kinase) | Activity Met, % (Met kinase) | Activity Syk, % (Syk kinase) | Activity Btk, % (BTK kinase) | inhibition mechanism with regard to ATP (IGF1R kinase [2]) | inhibition mechanism with regard to the substrate (IGF1R kinase [2]) | stronger inhibition of InsR versus IGF1R (InsR kinase) | Structure (SMILES)
18 µM | essentially nonselective | 22 µM | 102% | 109% | 98% | non-competitive inhibition | non-competitive inhibition | – | O=C(Nc1ccc2c(c1)OCCO2)c1ccc2c(c1)OCCO2 [Compound L1]
25 µM | – | 100 µM | 63% | 48% | 106% | – | – | – | O=C(Nc1ccc2c(c1)OCO2)c1ccc2c(c1)OCCO2 [Compound L2]
26 µM | essentially nonselective | 29 µM | 77% | 88% | 106% | – | – | – | COc1ccc(NC(=O)c2ccc3c(c2)OCCO3)cc1 [Compound L3]
25 µM | essentially nonselective | 30 µM | 60% | 53% | 113% | – | – | – | O=C(Nc1ccc2nccnc2c1)c1ccc2c(c1)OCCO2 [Compound L4]
~100 µM | – | 20 µM | 78% | 84% | 92% | – | – | 5-10 fold | NS(=O)(=O)c1ccc(NNC(=O)c2ccc(NS(=O)(=O)c3cccs3)cc2)c([N+](=O)[O-])c1 [Compound T1]
18 µM | – | 30 µM | 62% | 72% | 83% | – | – | – | COc1cc(CNC(=O)c2ccc[nH]c2=S)ccc1OCc1ccncc1 [Compound T2]
~100 µM | – | 10 µM | 98% | 115% | 81% | – | – | 5-10 fold | CCOc1ccc(NS(=O)(=O)c2ccc3[nH]c(=O)cc(C(=O)Nc4ccn(C)n4)c3c2)cc1 [Compound T3]
7 µM | – | 10 µM | 75% | 115% | 82% | non-competitive inhibition | non-competitive inhibition | – | O=C(NCc1ccc(Cn2ccnc2)cc1)c1ccc[nH]c1=S [Compound T4]
